# Source: patent US7989654B2, “High purity bases of 3,3-diphenylpropylamino monoesters” (UCB Pharma GmbH, priority 2003, dated 2011)
# Key:
# [1] = Stirring of fesoterodine base under distilled water, TLC of the aqueous phase; format: physicochemical; conditions: covered with distilled water, stirred two days at room temperature
# Description: Fesoterodine (107.7 mg (R)-2-(3-Diisopropylamino-1-phenylpropyl)-4-hydroxymethylphenyl isobutyric acid ester, B) is covered with a layer distilled water and stirred at room temperature. After two days of stirring, the reaction batch remains unchanged two-phase.
# [2] = Storage stability of fesoterodine base as oil and in polymer matrices; format: physicochemical; conditions: storage for 6 months at 5° C.
# Description: While, for example, the free base of fesoterodine is decomposed as an oil after storage for 6 months at 5° C. to around 3-4%, a drop in concentration cannot be established or only established essentially to a lesser extent when fesoterodine is incorporated in matrices, which contain polar components. [table]
smiles,measurement,setting,value
"CC(C)C(=O)Oc1ccc(CO)cc1[C@H](CCN(C(C)C)C(C)C)c1ccccc1 [free base of fesoterodine, (R)-2-[3-(1,1-diisopropylamino)-1-phenylpropyl]-4-(hydroxymethyl)phenyl isobutyrate]",Organic material detectable in the aqueous phase by thin layer chromatography,[1],No organic material (B or E) could be detected
same,Decomposition during storage as an oil,[2],3-4%
